We go through 12 molecules from patent US10093658B2, “Bifunctional compounds and use for reducing uric acid levels” (Acquist LLC, priority 2015, dated 2018).

pIC50: −log10 of the molar value. “And” between values parts separate entries of the source, which are not always exact repeats. Equal values may be shown once. Read-outs that look alike come from different tables or passages of the source.

For one experiment, the target named is Xanthine oxidase (Homo sapiens (Human), UniProt P47989). Nature of the experiment: Fluorescence-based xanthine oxidase activity assay. Format: biochemical. Particulars: for XO inhibition (in words): qualitative statement.
Chain of Xanthine oxidase (P47989 whole entry, species assumed): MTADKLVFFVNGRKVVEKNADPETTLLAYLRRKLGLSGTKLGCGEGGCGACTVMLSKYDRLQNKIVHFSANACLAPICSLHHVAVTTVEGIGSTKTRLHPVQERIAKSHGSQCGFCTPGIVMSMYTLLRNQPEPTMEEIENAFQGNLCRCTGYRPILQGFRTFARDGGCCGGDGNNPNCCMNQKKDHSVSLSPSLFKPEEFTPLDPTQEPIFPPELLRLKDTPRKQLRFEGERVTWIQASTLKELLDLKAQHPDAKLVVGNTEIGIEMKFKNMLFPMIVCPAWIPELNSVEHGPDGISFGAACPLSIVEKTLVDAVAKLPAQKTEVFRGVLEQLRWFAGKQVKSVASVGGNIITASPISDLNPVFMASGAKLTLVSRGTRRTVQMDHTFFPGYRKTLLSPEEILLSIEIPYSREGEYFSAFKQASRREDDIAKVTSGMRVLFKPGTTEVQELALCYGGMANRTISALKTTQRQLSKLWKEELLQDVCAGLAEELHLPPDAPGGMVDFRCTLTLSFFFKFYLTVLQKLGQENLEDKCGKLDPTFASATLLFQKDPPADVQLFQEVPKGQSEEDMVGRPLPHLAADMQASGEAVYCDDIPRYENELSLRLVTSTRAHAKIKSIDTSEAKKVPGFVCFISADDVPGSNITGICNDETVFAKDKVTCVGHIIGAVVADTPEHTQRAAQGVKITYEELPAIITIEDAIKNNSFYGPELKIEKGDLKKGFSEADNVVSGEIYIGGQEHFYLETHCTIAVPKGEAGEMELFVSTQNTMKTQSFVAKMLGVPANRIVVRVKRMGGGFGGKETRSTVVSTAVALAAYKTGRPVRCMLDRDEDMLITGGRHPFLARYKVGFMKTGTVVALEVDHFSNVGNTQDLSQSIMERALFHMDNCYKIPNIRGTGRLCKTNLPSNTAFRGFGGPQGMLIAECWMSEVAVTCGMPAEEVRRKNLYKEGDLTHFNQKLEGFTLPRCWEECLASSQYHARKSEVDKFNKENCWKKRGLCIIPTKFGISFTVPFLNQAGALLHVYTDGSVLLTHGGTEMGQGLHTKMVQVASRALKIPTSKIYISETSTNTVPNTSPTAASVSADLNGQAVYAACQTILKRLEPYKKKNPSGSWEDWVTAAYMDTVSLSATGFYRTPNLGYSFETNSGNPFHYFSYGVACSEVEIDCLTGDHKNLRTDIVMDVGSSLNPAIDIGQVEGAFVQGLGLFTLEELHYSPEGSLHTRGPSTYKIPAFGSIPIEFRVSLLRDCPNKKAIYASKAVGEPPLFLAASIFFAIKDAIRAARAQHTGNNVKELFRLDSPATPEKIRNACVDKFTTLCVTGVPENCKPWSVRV
The target of a further experiment is URAT1 (SLC22A12) (Homo sapiens (Human), UniProt Q96S37). The experiment is described as follows: URAT1 (SLC22A12) cellular uptake assay, 3H-orotate transport in stably transfected URAT-1/CHO cells. Particulars: for URAT1 inhibition (in words): qualitative statement.
Chain of URAT1 (SLC22A12) (Q96S37 whole entry): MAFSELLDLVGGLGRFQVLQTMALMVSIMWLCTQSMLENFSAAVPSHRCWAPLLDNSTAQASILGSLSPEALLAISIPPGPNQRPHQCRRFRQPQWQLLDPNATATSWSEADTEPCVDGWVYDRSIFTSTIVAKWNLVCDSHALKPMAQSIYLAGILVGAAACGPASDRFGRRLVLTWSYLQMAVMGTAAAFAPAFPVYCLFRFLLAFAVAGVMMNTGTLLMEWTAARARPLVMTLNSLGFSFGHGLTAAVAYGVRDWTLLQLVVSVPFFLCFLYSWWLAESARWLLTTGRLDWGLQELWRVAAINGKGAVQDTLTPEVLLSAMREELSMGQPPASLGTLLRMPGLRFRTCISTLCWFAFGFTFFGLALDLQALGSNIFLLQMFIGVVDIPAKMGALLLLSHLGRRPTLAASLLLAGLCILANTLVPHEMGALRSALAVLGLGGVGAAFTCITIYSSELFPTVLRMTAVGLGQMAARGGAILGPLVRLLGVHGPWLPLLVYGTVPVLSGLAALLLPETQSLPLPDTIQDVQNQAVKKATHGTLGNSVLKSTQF
[1] abbreviates: fluorescence-based assay, triplicate, 10 concentrations, read-out: Xanthine Oxidase IC50.
Where [2] appears, read: read-out: URAT1 IC50, URAT-1/CHO cells, 3H-orotate uptake, URAT1 assay as described herein.

The pIC50 is the negative decadic logarithm of the IC50, by convention in mol/L. As for `O=C(Nc1ccc2n[nH]nc2c1)c1c(O)[nH]c(=O)[nH]c1=O` [Formula (IIIa), N-(1H-benzo[d][1,2,3]triazol-6-yl)-6-hydroxy-2,4-dioxo-1,2,3,4-tetrahydropyrimidine-5-carboxamide], the pIC50 was 5.05 on Xanthine oxidase (setting [1]) and 5.87 on URAT1 (SLC22A12) (setting [2]).
The matching figures for `O=C(Nc1ccc(-c2nnn[nH]2)cc1)c1c(O)[nH]c(=O)[nH]c1=O` [Formula (IIa), N-(4-(2H-tetrazol-5-yl)phenyl)-6-hydroxy-2,4-dioxo-1,2,3,4-tetrahydropyrimidine-5-carboxamide]: 6.17 and 5.02.
As for `O=C(Nc1ccc(-c2nnn[nH]2)cc1)c1c(O)[nH]c(=S)[nH]c1=O` [Formula (IIb), N-(4-(2H-tetrazol-5-yl)phenyl)-6-hydroxy-4-oxo-2-thioxo-1,2,3,4-tetrahydropyrimidine-5-carboxamide], the pIC50 at Xanthine oxidase (setting [1]) was 6.41; at URAT1 (SLC22A12) (setting [2]), 3.83.
Regarding `O=C(Nc1ccc(-n2cnnn2)cc1)c1c(O)[nH]c(=O)[nH]c1=O` [Formula (IIc), N-(4-(1H-tetrazol-1-yl)phenyl)-6-hydroxy-2,4-dioxo-1,2,3,4-tetrahydropyrimidine-5-carboxamide], the pIC50 at Xanthine oxidase (setting [1]) was 4.68.
Regarding `O=C(Nc1ccc(-c2cnn[nH]2)cc1)c1c(O)[nH]c(=O)[nH]c1=O` [Formula (IIe), N-(4-(1H-1,2,3-triazol-5-yl)phenyl)-6-hydroxy-2,4-dioxo-1,2,3,4-tetrahydropyrimidine-5-carboxamide], the pIC50 at Xanthine oxidase (setting [1]) is 5.91 and 5.94; at URAT1 (SLC22A12) (setting [2]) it was 6.16.
On to `O=C(Nc1ccc(-c2cnn[nH]2)cc1)c1c(O)[nH]c(=S)[nH]c1=O` [Formula (IIf), N-(4-(1H-1,2,3-triazol-5-yl)phenyl)-6-hydroxy-4-oxo-2-thioxo-1,2,3,4-tetrahydropyrimidine-5-carboxamide], for which the pIC50 on Xanthine oxidase (setting [1]) is 7.22 and 7.05; at URAT1 (SLC22A12) (setting [2]) it was 4.95. Also, the “XO inhibition (in words)” value on Xanthine oxidase is “comparable to febuxostat”.
Take `NS(=O)(=O)c1ccc(NC(=O)c2c(O)[nH]c(=O)[nH]c2=O)cc1` [Formula (Ia), 6-hydroxy-2,4-dioxo-N-(4-sulfamoylphenyl)-1,2,3,4-tetrahydropyrimidine-5-carboxamide]: the pIC50 on Xanthine oxidase (setting [1]) was at most 3.52.
`CS(=O)(=O)Nc1ccc(NC(=O)c2c(O)[nH]c(=O)[nH]c2=O)cc1` [Formula (Ib), 6-hydroxy-N-(4-(methylsulfonamido)phenyl)-2,4-dioxo-1,2,3,4-tetrahydropyrimidine-5-carboxamide]: the pIC50 on Xanthine oxidase (setting [1]) was 4.06.
In the case of `O=C(Nc1ccc(NS(=O)(=O)C(F)(F)F)cc1)c1c(O)[nH]c(=O)[nH]c1=O` [Formula (Ic), 6-hydroxy-2,4-dioxo-N-(4-(trifluoromethylsulfonamido)phenyl)-1,2,3,4-tetrahydropyrimidine-5-carboxamide], the pIC50 at Xanthine oxidase (setting [1]) is 3.70.
Turning to `O=C(Nc1ccc(O)c(CO)c1)c1c(O)[nH]c(=O)[nH]c1=O` [Formula (Id), 6-hydroxy-N-(4-hydroxy-3-(hydroxymethyl)phenyl)-2,4-dioxo-1,2,3,4-tetrahydropyrimidine-5-carboxamide], the pIC50 is above 5.00 against Xanthine oxidase, 5.44 on Xanthine oxidase (setting [1]), above 5.00 against URAT1 (SLC22A12) and 5.14 at URAT1 (SLC22A12) (setting [2]).
On to `O=C(Nc1ccc(-c2noc(=O)[nH]2)cc1)c1c(O)[nH]c(=O)[nH]c1=O` [Formula (If), 6-hydroxy-2,4-dioxo-N-(4-(5-oxo-4,5-dihydro-1,2,4-oxadiazol-3-yl)phenyl)-1,2,3,4-tetrahydropyrimidine-5-carboxamide], for which the pIC50 is 5.32 and 5.11 at Xanthine oxidase (setting [1]); 5.12 on URAT1 (SLC22A12) (setting [2]). On Xanthine oxidase, the “XO inhibition (in words)” value is on record as “active against both targets”. For the same molecule, the “URAT1 inhibition (in words)” value on URAT1 (SLC22A12) is recorded as “active against both targets”.
For the molecule `O=C(Nc1ccc(-c2noc(=O)[nH]2)cc1)c1c(O)[nH]c(=S)[nH]c1=O` [Formula (Ig), 6-Hydroxy-4-oxo-N-(4-(5-oxo-4,5-dihydro-1,2,4-oxadiazol-3-yl)phenyl)-2-thioxo-1,2,3,4-tetrahydropyrimidine-5-carboxamide], the pIC50 on Xanthine oxidase (setting [1]) was 5.48 and 5.10; on URAT1 (SLC22A12) (setting [2]), below 3.82. Besides, the “XO inhibition (in words)” value at Xanthine oxidase is on record as “acceptable XO inhibitor”. For the same molecule, the “URAT1 inhibition (in words)” value on URAT1 (SLC22A12) is “poor URAT1 inhibitor”.
